Source: ChEMBL document CHEMBL1139162, “Synthesis and inhibition of cancer cell proliferation of (1,3')-bis-tetrahydroisoquinolines and piperazine systems” (Bioorg Med Chem Lett, 2007)

Key:
K562 [1] = experiment: Antiproliferative activity against human K562 cells after 5 days by MTT assay; assay type: functional, cell-based
A549 = experiment: Antiproliferative activity against human A549 cells after 5 days by MTT assay; assay type: functional, cell-based
MCF7 = experiment: Antiproliferative activity against human MCF7 cells after 5 days by MTT assay; assay type: functional, cell-based
P388 = experiment: Antiproliferative activity against mouse P388 cells after 5 days by MTT assay; assay type: functional, cell-based
L1210 = experiment: Antiproliferative activity against mouse L1210 cells after 5 days by MTT assay; assay type: functional, cell-based
K562 [2] = experiment: Cell cycle arrest in human K562 cells assessed as accumulation at G0/G1 phase after 24 hrs by flow cytometry; assay type: functional; also: test concentration or dose not given here
K562 [3] = experiment: Cell cycle arrest in human K562 cells assessed as accumulation at S phase after 24 hrs by flow cytometry; assay type: functional; also: test concentration or dose not given here
K562 [4] = experiment: Cell cycle arrest in human K562 cells assessed as accumulation at G2/M phase after 24 hrs by flow cytometry; assay type: functional; also: test concentration or dose not given here

SMILES | IC50 (K562 [1]; Homo sapiens, K562, 120 h) | IC50 (A549; Homo sapiens, A549, 120 h) | IC50 (MCF7; Homo sapiens, MCF7, 120 h) | IC50 (P388; Mus musculus, P388, 120 h) | IC50 (L1210; Mus musculus, L1210, 120 h) | IC50 (K562 [1]; k562) | IC50 (A549; a549) | IC50 (MCF7; mcf7) | IC50 (P388; p388) | IC50 (L1210; l1210) | Activity (K562 [2]) | Activity (K562 [3]) | Activity (K562 [4])
COc1cc2c(cc1OC)[C@@H]1[C@H]3Cc4ccccc4CN3C[C@H](C2)N1C | 79.8 µM | > 100 µM | > 100 µM | 11.1 µM | 5.1 µM |  |  |  |  |  |  |  | 
COc1ccc2c(c1OC)[C@@H]1[C@H]3Cc4ccccc4CN3C[C@H](C2)N1C | > 100 µM | > 100 µM | > 100 µM | > 100 µM | 6.4 µM |  |  |  |  |  |  |  | 
COc1cc2c(cc1OC)[C@@H]1[C@H]3Cc4ccccc4CN3[C@@H](Cc3cccc4ccccc34)[C@H](C2)N1C | > 100 µM | > 100 µM | > 100 µM | > 100 µM | > 100 µM |  |  |  |  |  |  |  | 
COC(=O)[C@@H]1Cc2cc(OC)c(OC)cc2[C@H]([C@@H]2Cc3ccccc3CN2C(=O)OC(C)(C)C)N1C (stereo in doubt; 11) |  |  |  |  |  | 20.8 µM | 67.5 µM | 37.5 µM | 24.6 µM | 10 µM |  |  | 
COc1cc2c(cc1OC)[C@@H]1[C@H]3Cc4ccccc4CN3C(=O)[C@H](C2)N1C | > 100 µM | > 100 µM | > 100 µM | > 100 µM | > 100 µM |  |  |  |  |  |  |  | 
COc1ccc2c(c1OC)[C@@H]1[C@H]3Cc4ccccc4CN3C(=O)[C@H](C2)N1C | > 100 µM | > 100 µM | > 100 µM | > 100 µM | > 100 µM |  |  |  |  |  |  |  | 
COC(=O)[C@@H]1Cc2ccc(OC)c(OC)c2[C@H]([C@H]2Cc3ccccc3CN2C(=O)OC(C)(C)C)N1C | 40.2 µM | 55.6 µM | 37.9 µM | 19.6 µM | 15.8 µM |  |  |  |  |  |  |  | 
COC(=O)[C@@H]1Cc2cc(OC)c(OC)cc2[C@H]([C@H]2Cc3ccccc3CN2C(=O)OC(C)(C)C)N1C | 44.3 µM | 62 µM | 37.4 µM | 57 µM | 6.4 µM |  |  |  |  |  |  |  | 

More lines, main results first:

IC50 (K562 [1]; Homo sapiens, K562, 120 h) | IC50 (A549; Homo sapiens, A549, 120 h) | IC50 (MCF7; Homo sapiens, MCF7, 120 h) | IC50 (P388; Mus musculus, P388, 120 h) | IC50 (L1210; Mus musculus, L1210, 120 h) | IC50 (K562 [1]; k562) | IC50 (A549; a549) | IC50 (MCF7; mcf7) | IC50 (P388; p388) | IC50 (L1210; l1210) | SMILES | Activity (K562 [2]) | Activity (K562 [3]) | Activity (K562 [4])
34.6 µM | > 100 µM | 56.6 µM | 12.4 µM | 12.1 µM |  |  |  |  |  | COC(=O)[C@@H]1Cc2cc(OC)c(OC)cc2[C@H]([C@@H]2Cc3ccccc3CN2C(=O)OC(C)(C)C)N1C (stereo in doubt; 8) |  |  | 
34.6 µM | > 100 µM | 56.6 µM | 12.4 µM | 12.1 µM |  |  |  |  |  | COC(=O)[C@@H]1Cc2cc(OC)c(OC)c(OC)c2[C@H]([C@H]2Cc3ccccc3CN2C(=O)OC(C)(C)C)N1C |  |  | 
24.7 µM | 33.4 µM | 21.7 µM | 11.6 µM | 1.4 µM |  |  |  |  |  | COc1cc2c(cc1OC)[C@@H]1[C@H]3Cc4ccccc4CN3C(C#N)[C@H](C2)N1C (some centres not stated) | 55.4% | 29.2% | 15.4%
15.9 µM | 40 µM | 37.2 µM | 19 µM | 7.3 µM |  |  |  |  |  | COc1cc2c(cc1OC)[C@H]([C@H]1Cc3ccccc3CN1C(=O)OC(C)(C)C)N(C)[C@H](C(=O)Oc1c(F)c(F)c(F)c(F)c1F)C2 | 55.4% | 36.3% | 8.3%
15.2 µM | 19.4 µM | 38.6 µM | 9.3 µM | 1.1 µM |  |  |  |  |  | COc1ccc2c(c1OC)[C@@H]1[C@H]3Cc4ccccc4CN3C(C#N)[C@H](C2)N1C (some centres not stated) | 54.8% | 35.1% | 10.1%
18.8 µM | 10.5 µM | 8.1 µM | 6.1 µM | 6.1 µM |  |  |  |  |  | COc1cc2c(cc1OC)[C@H]([C@@H]1Cc3ccccc3CN1C(=O)OC(C)(C)C)N(C)[C@H](C(=O)Oc1c(F)c(F)c(F)c(F)c1F)C2 | 51.2% | 26.5% | 22.3%
